Reference: patent US20120074014A1, “PRODUCT TYPICALLY BASED ON SALT OF PEROXYMONOSULFURIC ACID AND SUITABLE FOR MEDICINAL USAGE, AND ASSOCIATED PRODUCT FABRICATION” (LuTran Industries, Inc., priority 2010, published 2012)
Read-outs that look alike come from different tables or passages of the source.

Legend:
osteoarthritis = test: Example B: case treatment of osteoarthritis, complete-body immersion; format: in vivo, human; conditions: earlier treatment tried by the patient; patient report
Excerpt: (§1) Given below are examples of using the medicinal drug of type I/II for treating allergic rhinitis, osteoarthritis, gouty arthritis, bronchitis, hemorrhoids, urticaria, toothache, tinea pedis, acute viral nasopharyngitis, herpes simplex, dandruff, itching, bromhidrosis, and vaginitis. The formulation of the drug of type I/II used in these examples was the preferred formulation, mentioned above, in which the drug was formed with potassium hydrogen peroxymonosulfate as the active oxygen-releasing material, sodium chloride as the inorganic halide, sodium hexametaphosphate as the alkali metal phosphate, sulfamic acid, malic acid as the non-reducing organic acid, and sodium dodecylbenzene sulfonate as the surfactant at approximately the typical mass percentages mentioned above. A formulation approximating this formulation is commercially available in the product Virkon. This formulation of the drug of type I/II is referred to below as the “Medicine”. […]

adenovirus = conditions: Sporkenbach, U.S. Pat. No. 4,404,191; cited from earlier work
[1] = test system: simian vacuolating virus 40; conditions: Sporkenbach, U.S. Pat. No. 4,404,191; cited from earlier work
poliovirus = conditions: Sporkenbach, U.S. Pat. No. 4,404,191; cited from earlier work
coxsackie virus = conditions: Sporkenbach, U.S. Pat. No. 4,404,191; cited from earlier work
dandruff = test: Example K: case treatment of dandruff, scalp scrubbing; format: in vivo, human; conditions: earlier treatment tried by the patient; (some of) these decreased the amount of dandruff; patient report
Excerpt: Given below are examples of using the medicinal drug of type I/II for treating allergic rhinitis, osteoarthritis, gouty arthritis, bronchitis, hemorrhoids, urticaria, toothache, tinea pedis, acute viral nasopharyngitis, herpes simplex, dandruff, itching, bromhidrosis, and vaginitis. […] A formulation approximating this formulation is commercially available in the product Virkon. This formulation of the drug of type I/II is referred to below as the “Medicine”.
The Medicine for each person infected with allergic rhinitis, osteoarthritis, gouty arthritis, bronchitis, hemorrhoids, urticaria, toothache, tinea pedis, acute viral nasopharyngitis, herpes simplex, dandruff, itching, bromhidrosis, and vaginitis is provided for topical, intranasal, oral, or/and injection administration 1-12 times per day, preferably 1-8 times per day, more preferably 1-6 times per day, typically 1-4 times per day, in liquid form at a dosage of 0.00001-5%, preferably 0.001-3%, more preferably 0.1-2%, typically 0.5-1%, for a time of contact of 1 minute-12 hours, preferably 1 minute-6 hours, more preferably 1 minute-2 hours, typically 1-30 minutes.
The Medicine was provided to […] as a 1% solution for topical administration by scrubbing the Medicine into their scalp and hair for 5 minutes and then washing their scalp and hair. The […] reported that they administered the Medicine to themself in the foregoing manner 4 times a week for 2 weeks.

vaginitis = test: Example N: case treatment of vaginitis, vaginal immersion; format: in vivo, human; conditions: earlier treatment tried by the patient; patient report
Excerpt: as §1

[2] = cited from earlier work

N[C@H]1C(O)O[C@H](CO)[C@@H](O)[C@@H]1O (some centres unmarked) [glucosamine]
relief of osteoarthritis by earlier treatments (osteoarthritis): without effective relief

O=S(=O)([O-])OO.[K+] [potassium hydrogen peroxymonosulfate]
inactivation of adenovirus (adenovirus): inactivated
inactivation of simian vacuolating virus 40 [1]: inactivated
inactivation of poliovirus (poliovirus): inactivated
inactivation of coxsackie virus (coxsackie virus): inactivated

CC(=O)N1CCN(c2ccc(OCC3COC(Cn4ccnc4)(c4ccc(Cl)cc4Cl)O3)cc2)CC1 (centres unmarked) [ketoconazole]
dandruff after earlier treatments (dandruff): still visible

zinc pyrithione
dandruff after earlier treatments (dandruff): still visible

S=[Se]=S [selenium sulfide]
dandruff after earlier treatments (dandruff): still visible

C[C@]12CCC(=O)C=C1CC[C@@H]1[C@@H]2[C@@H](O)C[C@@]2(C)[C@H]1CC[C@]2(O)C(=O)CO [hydrocortisone]
success of earlier treatments for vaginitis (vaginitis): without significant success

potassium monopersulfate triple salt
loss of active oxygen content per month ([2]; anhydrous solid, reported in Tufano): roughly 1%
loss of active oxygen content per month ([2]; solutions (solvent presumably high-purity water), Tufano and Durante): 3-5%
